According to patent publication US7666414B2, “Methods for treating prostate cancer using modified antibodies to prostate-specific membrane antigen” (Cornell Research Foundation, Inc., priority 2001, dated 2010):
Like-named read-outs stand apart in the source and are kept apart here.

Assays:
[1] = tested on: LNCaP cells tumor xenografts; test: Murine J591-DM1 immunoconjugate in LNCaP xenografts; assay type: in vivo, BALB/c mice; conditions: unconjugated, alone or with unconjugated mAb J591, intraperitoneal qday x 5 days
Procedure: Tumor xenografts of LNCaP cells were established in the right flank of BALB/c mice (5×10^6 cells injected subcutaneously). Animals were observed until tumors were visible (7-10 mm). Animals were then treated with PBS, unconjugated mAb J591, unconjugated DM1, both mAb J591 and DM1 but unconjugated, and J591-DM1 immunoconjugate (100, 200, 300, and 400 mcg/day intraperitoneal qday×5 days). The mAb J591 was modified to introduce dithiopyridyl groups and then conjugated to DM1 via a hindered disulfide bond, as described above. Unconjugated mAb J591 and DM1 were given in equimolar concentrations.
Tumor xenografts of both LNCaP cells (5×10^6 cells injected subcutaneously in the right flank) and PC3 cells (3×10^6 cells injected subcutaneously in the left flank) were established in BALB/c mice. Animals were observed until LNCaP tumors were visible (PC3 tumors were present but much smaller). Animals treated with J591-DM1 immunoconjugate: 300 mcg/day intraperitoneal qday×5 days
Tumor xenografts of LNCaP cells were established subcutaneously in the right flank of BALB/c mice. […]
All animals were photographed pre- and post-treatment and tagged for identification. Tumor volume was determined (length×width×depth) and closely followed. […]

[2] = tested on: PSMA-positive CWR22 xenografts; test: Efficacy in PSMA-positive CWR22 xenografts; assay type: in vivo, C.B-17 scid mice
Procedure: (§1) Experiment: Male SCID mice were implanted by serial passage of CWR22 prostate tumor xenograft. […] All treatments were given intravenously. Tumor growth and animal health were continually monitored throughout the study with tumor growth measured every 3 days.
Experiment: Male C.B-17 SCID mice bearing CWR22 xenografts approximately 200 mm^3 in size received IV injections (200 μL constant volume) of the test articles according to the dose and schedule as shown in Table 22.
Male C.B-17 scid mice bearing CWR22 xenografts approximately 200 mm^3 in size received IV injections (200 μL constant volume) of the test articles according to the dose and schedule shown in the Table 23.
The objective of this study was to determine how much the dosing interval could be increased at this dosage before a loss of efficacy in terms of TGD would be observed. […] The growth delays for the other schedules were: q7d, 53.0 days; q21d, 48.0 days; and q28d, 26.9 days. Similar to other studies using the CWR22 xenograft model, no curative responses were observed, with all tumors eventually resuming growth (FIG. 18).
as §1, with “intravenously and on a schedule of every three days for 5 doses.” for “intravenously.”
as §1, with “intravenously and on a schedule of every seven days for 5 doses.” for “intravenously.”

[3] = tested on: PSMA-positive 22RV1 xenografts; test: Efficacy in castrate or intact scid mice bearing androgen-independent 22RV1 xenograft; assay type: in vivo, C.B-17 scid mice; conditions: 240 μg/kg, q3dX5
Procedure: Prostate tumors can be broadly classified as either androgen-dependent or androgen-independent. […] The 22RV1 cell line was originally developed as androgen-independent and can be grown as a xenograft in C.B-17 scid mice that have been left either intact or castrated. […] C.B-17 scid mice bearing CWR22 xenografts approximately 200 mm^3 in size received IV injections (200 μL constant volume) of the test articles according to the dosage and schedule shown in the Table 24.

CD-1 mice = tested on: CD-1 mice
Excerpt: Use of both mice and cynomolgus monkeys for nonclinical testing allowed comparison of exposure and toxicity across species on the basis of body surface area (mg/m^2), and thus aided in selecting the SSD for the proposed Phase 1 clinical trial.

With `COc1cc2cc(c1Cl)N(C)C(=O)C[C@H](OC(=O)[C@H](C)N(C)C(=O)CCS)[C@]1(C)O[C@H]1[C@H](C)[C@@H]1C[C@@](O)(NC(=O)O1)[C@H](OC)/C=C/C=C(\C)C2` [DM1, reference compound] the lethality [1] was “died within 48 hours of treatment completion”, the “Tumor Growth Delay” value ([2]; Comparison II, 240 μg/kg, q3dX5) was 9.5 days and the “effect on CWR22 xenograft tumor growth” value ([2]; every three days for 5 doses, IV, equimolar to 14.5 mg/kg deJ591-DM1) was “some tumor growth delay”. For the same molecule, the “Relative TGD (TGD of castrate mice/TGD of intact mice)” value [3] was 1.4, the “Tumor Growth Delay” value ([3]; Castrate Mice) was 9.1 days and the “Tumor Growth Delay” value ([3]; Intact Mice) was 6.3 days. The “Degree of Toxicity and Major Target Organs” value (CD-1 mice; DM1 0.86 mg/m^2 (0.29 mg/kg), single IV, CD-1 mice) was “Slight mitosis/necrosis of epidermis”, the “Degree of Toxicity and Major Target Organs” value (CD-1 mice; DM1 1.62 mg/m^2 ([…]), single IV, CD-1 mice) was “Mild bone marrow myeloid” and the mortality (CD-1 mice; DM1 8.64 mg/m^2 (2.88 mg/kg), single IV, CD-1 mice) was 100% mortality attributed to severe. The “elevated AST and ALT values” (CD-1 mice; DM1 […]^2 (1.08 mg/kg), single IV, CD-1 mice) was “moderate mitosis/necrosis of liver; no”, the STD (CD-1 mice; severely toxic dosage, single IV, CD-1 mice) was 1.80 mg/kg and the “toxicity compared to deJ591-DM1 at equimolar dosages” value (CD-1 mice; single IV administration) was “tended to be less toxic than deJ591-DM1 at lower dosages”. For the same molecule, the MTD (CD-1 mice; single IV, CD-1 mice) was 1.08 mg/kg.
